The values that follow come from patent US10882818B1, “P-bromoaniline cassic acid ester with antibacterial activity and a method of preparing the same” (ZHUHAI JINAN SELENIUM SOURCE NANOTECHNOLOGY CO., LTD., priority 2020, dated 2021).

Values after ≈ are worked out from the molar mass of the structure shown.

Holding throughout (format): cell-based
One assay relates to drug-resistant bacteria. Put plainly: Antibacterial activity test, overall result on the strain panel. Particulars: all experimental strains, up to 128 μg/mL. An excerpt: (§1) The minimal inhibitory concentration (MIC) of the compounds as determined by microbroth dilution method with gentamicin, cefazolin sodium and ceftriaxone sodium as positive control.
(§2) The experimental strains included methicillin-resistant Gram-positive bacteria: methicillin-resistant Staphylococcus aureus MRSA 18-222, 18-575; multiple drug-resistant Gram-negative bacteria: vancomycin-resistant enterococci VRE 18-80, 18-94, multidrug-resistant Pseudomonas aeruginosa MDR-PA 18-1774, 18-202, carbapenem-resistant Acinetobacter baumannii CR-AB 18-183, 18-560. All the experimental strains were donated by Huashan Hospital affiliated to Fudan University (Institute of Antibiotics, Fudan University) and used after routine identification.
(§3) Preparation of MHB medium: 20.0 g MHB medium was added to 1 L distilled water, boiled until completely dissolved, packed in conical bottles and sterilized at 121° C. for 15 min.
The experimental strain was cultured to the logarithmic growth phase: under aseptic condition, the experimental strain was inoculated into 100 mL MHB medium and incubated in a constant temperature and humidity incubator at 37° C. for 20-22 hours. […]

Assay [1] concerns methicillin-resistant Staphylococcus aureus MRSA 18-222. Put plainly: Antibacterial activity test, MIC by microbroth dilution. The conditions noted are these: 37° C., 20-22 hours.
Source text: as §1, §2, §3
(§4) The experimental strain was cultured to the logarithmic growth phase: under aseptic condition, the experimental strain was inoculated into 100 mL MHB medium and incubated in a constant temperature and humidity incubator at 37° C. for 20-22 hours.
(§5) Preparation of storage solution: weighing the sample to be tested, dissolving it with 1% DMSO solution, preparing a storage solution with a concentration of 2560 μg/mL; weighing a positive reference substance, dissolving it with aseptic distilled water, and configuring a storage solution with a concentration of 2560 μg/mL.
(§6) Preparation of bacterial suspension: under aseptic condition, the experimental strains cultured to logarithmic growth phase were adjusted to 0.5 MCF turbidity standard with MHB medium and diluted according to 1:10, and the bacterial suspension with concentration of 10^6 CFU/mL was prepared for standby.
(§7) Dilution of storage solution and inoculation of experimental strain: under aseptic condition, the storage solution was diluted to 256 μg/mL solution; taking a sterile 96-well plate, adding 200 μL MHB medium to the 12th well, and adding 100 μL MHB medium to each well; adding 100 μL of positive control solution to the first well, mixing well, and sucking 100 μL from it and discarding; adding 100 μL of the compound sample solution to the second well, mixing well, and then pipetting 100 μL to the third well; after mixing, pipetting 100 μL to the fourth well, and diluting to the 11th well in this way; finally, 100 μL was pipetted from the 11th well and discarded, the 12th hole was the growth control without drugs. The concentration of the positive reference substance is 128 μg/mL; the concentrations of the sample solution are 128, 64, […], 8, 4, 2, 1, 0.5, 0.25 μg/mL, respectively. Then, 100 μL of the prepared bacterial suspension is added to each well, so that the final concentration of the bacterial liquid in each well is 5×10^5 CFU/mL.
(§8) Incubation: covering the 96-well plate inoculated with the experimental strains, and incubating in a constant temperature and humidity box at 37° C. for 20-22 hours.
(In broth dilution the organism is exposed to a series of concentrations in liquid medium.)

Assay [2] concerns vancomycin-resistant enterococci VRE 18-94. Described as above. Particulars: for Minimum bacteriostatic concentration: VRE 18-94, microbroth dilution, 37° C., 20-22 hours.
Source text: as §1, §2, §3, §4, §5, §6, §7, §8

In assay [3] the test system is carbapenem-resistant Acinetobacter baumannii CR-AB 18-183. The assay is described as above. Particulars: 37° C., 20-22 hours.
Source text: as §1, §2, §3, §4, §5, §6, §7, §8

For assay [4], the system named is vancomycin-resistant enterococci VRE 18-80. Described as above. The conditions noted are these: 37° C., 20-22 hours.
Source text: as §1, §2, §3, §4, §5, §6, §7, §8

For assay [5], the system named is multidrug-resistant Pseudomonas aeruginosa MDR-PA 18-202. The assay is described as above. The conditions noted are these: 37° C., 20-22 hours.
Source text: as §1, §2, §3, §4, §5, §6, §7, §8

In assay [6] the test system is carbapenem-resistant Acinetobacter baumannii CR-AB 18-560. Described as above. The conditions noted are these: 37° C., 20-22 hours.
Source text: as §1, §2, §3, §4, §5, §6, §7, §8

The test system of assay [7] is methicillin-resistant Staphylococcus aureus MRSA 18-575. Described as above. Particulars: 37° C., 20-22 hours.
Source text: as §1, §2, §3, §4, §5, §6, §7, §8

The subject of assay [8] is multidrug-resistant Pseudomonas aeruginosa MDR-PA 18-174. Described as above. The conditions noted are these: for Minimum bacteriostatic concentration: MDR-PA 18-174, microbroth dilution, 37° C., 20-22 hours.
Source text: as §1, §2, §3, §4, §5, §6, §7, §8
In FIGS. 1-6, the twelve wells represent twelve groups, from left to right, positive, 128 μg/mL, 64 μg/mL, 32 μg/mL, 16 μg/mL, 8 μg/mL, 4 μg/mL, 2 μg/mL, 1 μg/mL, […], Negative.

As for `O=C(O)c1cc(O)c2c(c1)C(=O)c1cccc(O)c1C2=O` [Cassic acid], the “inhibitory effect on drug-resistant bacteria” value in the assay with drug-resistant bacteria was “no inhibitory effect”. Further, the Minimum bacteriostatic concentration in assay [1], in assay [2], in assay [3], in assay [4], in [5] and in assay [6] was more than 128 µg/mL throughout. For the same compound, the Minimum bacteriostatic concentration in assay [7] and in assay [8] was more than 128 µg/mL in each case.

On to `Cc1nnc(SCC2=C(C(=O)O)N3C(=O)[C@@H](NC(=O)Cn4cnnn4)[C@H]3SC2)s1` [Cefazolin sodium, cefazolin sodium], for which the Minimum bacteriostatic concentration is more than 128 µg/mL in [1]; more than 128 µg/mL in assay [2]; more than 128 µg/mL in assay [3]; 32 µg/mL in assay [4]; 128 µg/mL in assay [5]; more than 128 µg/mL in assay [6]. Also, the Minimum bacteriostatic concentration in [7] was more than 128 µg/mL; in assay [8] it was 8 µg/mL.

On to `CO/N=C(\C(=O)N[C@@H]1C(=O)N2C(C(=O)O)=C(CSc3nc(=O)c(=O)[nH]n3C)CS[C@H]12)c1csc(N)n1` [Ceftriaxone sodium, ceftriaxone sodium], for which the Minimum bacteriostatic concentration in assay [1] was more than 128 µg/mL; in assay [2], more than 128 µg/mL; in [3] it was more than 128 µg/mL; in [4], 8 µg/mL; in assay [5], 16 µg/mL; in [6] it was more than 128 µg/mL. Besides, the Minimum bacteriostatic concentration was more than 128 µg/mL in assay [7] and 128 µg/mL in assay [8].

`Nc1ccc(Br)cc1` [P-Bromoaniline, P-bromoaniline]: the “inhibitory effect on drug-resistant bacteria” value in the assay with drug-resistant bacteria is “no inhibitory effect”. For the same compound, the Minimum bacteriostatic concentration in [1], in assay [2], in assay [3], in assay [4], in assay [5] and in assay [6] was more than 128 µg/mL in each case. For the same compound, the Minimum bacteriostatic concentration in [7] and in [8] was more than 128 µg/mL each time.

As a reminder, the MIC is the least concentration at which growth counts as inhibited. On to `O=C(Nc1ccc(Br)cc1)c1cc(O)c2c(c1)C(=O)c1cccc(O)c1C2=O` [p-Bromoaniline cassic acid ester, N-(4-bromophenyl)-4,5-dihydroxy-9,10-dioxo-9,10-dihydroanthracene-2-carboxamide], for which the Minimum bacteriostatic concentration was more than 128 µg/mL in assay [1]; 128 µg/mL in assay [2]; more than 128 µg/mL in assay [3]; more than 128 µg/mL in [4]; more than 128 µg/mL in [5]; more than 128 µg/mL in [6]. The Minimum bacteriostatic concentration is more than 128 µg/mL in assay [7] and 32 µg/mL in assay [8]. The MIC in assay [2] (Enterococcus, vancomycin-resistant enterococci VRE 18-94) was determined as 128 µg/mL (≈ 292 µM); in assay [8] (multi-drug resistant Pseudomonas aeruginosa MDR-PA (strain number not given)), 32 µg/mL (≈ 73 µM).

On to gentamicin, for which the Minimum bacteriostatic concentration in [1] was 128 µg/mL; in assay [2], more than 128 µg/mL; in [3], more than 128 µg/mL; in assay [4], 0.0625 µg/mL; in assay [5], 0.0625 µg/mL; in assay [6], more than 128 µg/mL. Further, the Minimum bacteriostatic concentration came out at 2 µg/mL in assay [7] and 0.0625 µg/mL in assay [8].
